Assay results as given in patent US20190345202A1, “ANDROGEN RECEPTOR ANTISENSE OLIGONUCLEOTIDES” (OliPass Corporation, priority 2016, published 2019).
[C(1O2)] = PNA monomer with modified cytosine C(1O2), structure; [A(5)] = PNA monomer with modified adenine A(5), structure; {Fethoc} = Fethoc group on PNA N-terminus; {NH2} = C-terminal amide

Assays:
human AR mRNA = experiment: qPCR (TaqMan probe) of AR mRNA level in MCF7 cells; assay type: cell-based; conditions: 1 zM to 1 aM, 24 hours
Description: The qPCR reaction was monitored with a TaqMan probe of [(5′→3′) TTTCTTCAG-ZEN-CTTCCGGGCTC-3IABkFQ (SEQ ID NO: 19)].

androgen receptor = experiment: AR IHC of skin samples after topical administration in mice; assay type: in vivo, mouse; conditions: topical 1, 5, or 25 fM, skin samples Day 30
Description: [AR IHC of Skin Sample] Following the shaving in Day 21, the mice received a single topical administration of either vehicle or “ASO 1” according to the group. In Day 24, the skin of the area with hair removal was sampled for immunohistochemistry (IHC) analysis against androgen receptor. The skin samples were cryo-sectioned and subjected to immunostaining in series with a primary anti-AR antibody (Cat. No. sc-816, Santa Cruz) at 1:100 dilution, with a secondary anti-IgG (Cat No. BA-1100, Vector) at 1:200 dilution, and then with Dylight 594-steptavidin (Cat No. SA-5594, Vector, Calif., USA) at 1:200 dilution for red fluoresence tagging. The IHC images were captured on an Olympus fluorescence microscope for changes in the AR expression level upon topical treatment with “ASO 1”.
[AR Immunohistochemistry of Skin Samples] After the hair cut in Day 27, The animals topically received further either vehicle or “ASO 10” at 1, 5, or 25 fM in Days 27 and 29. Skin samples of the back were collected in Day 30 for immunohistochemical analysis against androgen receptor. The skin samples were subjected to immunostaining against androgen receptor as described in “Example 7”. IHC images were captured on a Zeiss slide scanner. FIG. 14B is a representative set of AR IHC images. […] It would be difficult to clearly state that the AR expression in hair follicles decreased in the treatment groups due to the marked increases in the number of hair follicles in the treatment groups.

AR protein = experiment: AR IHC of tissues of mice subcutaneously administered; assay type: in vivo, mouse; conditions: subcutaneous, dose increased from 0.01 to 0.1 pmole/Kg, 2× per week for 4 weeks, male C57BL/6 mice
Description: 12 weeks old male C57BL/6 mice were randomly assigned to 3 groups of negative control (no ASO treatment), 0.01 pmole/Kg “ASO 10” and 0.1 pmole/Kg “ASO 10”. (3 animals per group) Mice subcutaneously received either vehicle or ASO dissolved in vehicle (PBS) 2× per week for 4 weeks according to the dosing group. Three days post the final dosing, the animals were anesthetized with zoletil/rompun and subjected to tissue or organ sampling for AR IHC by paraffin blolck.
The AR protein was probed in series with a primary antibody (Cat. No. sc-816, Santa Cruz) at 1:100 dilution, a secondary anti-rabbit IgG (Cat. No. BA-1100, VECTOR) at 1:200 dilution, and Dylight 594-Streptavidin (Cat. No. SA-5594, VECTOR) at 1:200. Nucleus was stained with DAPI. IHC fluorescence images were captured on a Zeiss slide scanner.

human AR pre-mRNA = experiment: AR nested PCR for skipping of AR exon 5 in MCF7 cells; assay type: cell-based; conditions: 3 aM to 3 fM, 3 hours
Experimental: “ASO 5” was evaluated by AR nested PCR for its ability to induce the skipping of AR “exon 5” in MCF7 cells (Cat. Number: HTB-22, ATCC). The employed procedures are detailed as follows.
[Cell Culture & ASO Treatment] MCF7 cells were grown in EMEM medium supplemented with 10% FBS, 1% streptomycin/penicillin, and 0.01 mg/ml bovine insulin under 5% CO2 atmosphere at 37° C. Cells were sub-cultured in 60 mm culture dish prior to treatment with “ASO 5” at 3 aM to 3 fM.
[RNA Extraction] MCF7 cells were incubated with or without “ASO 5” for 3 hours. Total RNA was extracted from cells in 60 mm culture dish using “Universal RNA Extraction Kit” (Cat. No. 9767, Takara) according to the manufacturer's instructions [cDNA Synthesis by One-step PCR]
[Nested PCR Amplification] Throughout the amplification process, was used a unique amplification technique (touch up as increasing annealing temperature per cycle) that worked efficiently and specifically over a temperature range, rather than at one specific annealing temperature (i.e. conventional PCR method). […]
[Identification of Exon Skipping Products] […] The bands of target size were collected and analyzed by Sanger Sequencing. […]

full-length AR protein = experiment: Western blot of AR protein in MCF7 cells; assay type: cell-based, human; conditions: 10 zM to 30 aM
Experimental: 4 culture dishes were used for 4 negative controls. 48 hours later, cells were washed 2 times with cold PBS, and then subjected to lysis with 200 μL 1× cell lysis buffer (Cat. No. 9803, Cell Signaling Tech) supplemented with 1× protease inhibitor (Cat. No. P8340, Sigma). The lysates were collected in 1.5 ml e-tube. 200 μL of each lysate was mixed with 100 μL 3× sample buffer, and boiled for 5 min at 100 ? . 20 μL of each lysate (12 lysates in total). 4 negative controls and 8 ASO treatment samples) was subjected to electrophoretic separation on a 8% SDS-PAGE gel, and transferred onto a 0.2 μm PVDF membrane. The membrane was probed with anti-AR antibody (Cat. No. 5153, Cell Signaling Tech) and anti-β-actin antibody (Cat. No. sc4778, Santa Cruz). FIG. 10A provides the AR Western blot data obtained therefrom. Multiple (negative) control samples were used to overcome technical artifacts of western blot procedures.

Substance | decrease of relative expression level of exons 4-6 (TaqMan) (human AR mRNA) [%] | number of hair follicles vs negative control group (IHC images) (androgen receptor) | AR expression in the muscle layer underneath the dermis (IHC) (androgen receptor; most notable at 5 fM) | AR expression in epidermis distal to the injection site, liver, testis and prostate (IHC) (AR protein) | exon skipping (AR mRNA splice variants by nested PCR and Sanger sequencing) (human AR pre-mRNA) | AR band intensity vs neighboring lysates without ASO treatment (full-length AR protein)
Fethoc-C(1O2)TT-A(5)CC-A(5)GG(6)-CA(5)A-NH2 (antisense CTTACCAGGCAA; N-Fethoc, C-terminal amide, chemistry not fully specified) [ASO 10] | 50 to 70 | increased markedly | markedly decreased | markedly decreased | – | –
Fethoc-C(1O2)TT-A(5)CC-A(5)GG-C(1O2)AA(5)-G-NH2 (antisense CTTACCAGGCAAG; all peptide nucleic acid (PNA), [C(1O2)] at 1, 10, [A(5)] at 4, 7, 12, 5' {Fethoc}, 3' {NH2}; peptide nucleic acid, written N to C terminus) [ASO 5] | – | – | – | – | induce the skipping of “exon 5”, “exons 4-5”, and “exons 4-6” | considerably weaker
